Measurements as given in ChEMBL document CHEMBL1148297, “Synthesis and biological evaluation of analogues of 7-chloro-4,5-dihydro-4- oxo-8-(1,2,4-triazol-4-yl)-1,2,4-triazolo[1,5-a]quinoxaline-2-carboxylic acid (TQX-173) as novel selective AMPA receptor antagonists” (J Med Chem, 2004).

What was measured:
[1] = biological target: Glutamate receptor ionotropic, NMDA 1 (Rattus norvegicus, UniProt P35439); assay: Binding affinity towards N-methyl-D-aspartate glutamate receptor 1 (high affinity) of rat cortical synaptic membranes by using [3H]Gly as radioligand
[2] = species: Mus musculus; assay: Concentration necessary for 50% inhibition of depolarization induced by 5 uM S-AMPA in mouse cortical wedge preparation; format: functional
[3] = biological target: Glutamate receptor ionotropic, kainate; assay: Inhibition concentration towards high-affinity ionotropic glutamate receptor kainate of rat cortical membranes by using [3H]KA as radioligand
[4] = species: Mus musculus; assay: Concentration necessary for 50% inhibition of depolarization induced by 5 uM NMDA in mouse cortical wedge preparation; format: functional
[5] = biological target: Glutamate receptor ionotropic, AMPA (Rattus norvegicus, UniProt P19490+P19491+P19492+P19493)
Description: Binding affinity towards ionotropic glutamate receptor (high-affinity) of rat cortical synaptic membranes by using [3H]AMPA as radioligand

[6] = biological target: Glutamate receptor ionotropic, kainate (Rattus norvegicus) (UniProt P22756+Q01812+P42260+P42264+Q63273); assay: Percent inhibition of compound at 100 uM towards high-affinity Ionotropic glutamate receptor kainate of rat cortical membranes by using [3H]KA as radioligand; format: cell membranes; conditions: Membrane
[7] = biological target: Glutamate receptor ionotropic, NMDA 1 (Rattus norvegicus) (UniProt P35439); assay: Percent inhibition of compound at 100 uM towards N-methyl-D-aspartate glutamate receptor 1 (high affinity) of rat cortical synaptic membranes by using [3H]-Gly as radioligand; format: cell membranes; conditions: Membrane
[8] = biological target: Glutamate receptor ionotropic, kainate; assay: Inhibition concentration towards low-affinity Ionotropic glutamate receptor kainate of rat cortical membranes by using [3H]-KA as radioligand
[9] = species: Rattus norvegicus; assay: Concentration that inhibits 50% S-AMPA stimulated (50 uM) [3H]norepinephrine release from rat hippocampal synaptosomes; format: functional; conditions: Hippocampus
[10] = species: Rattus norvegicus; assay: Concentration giving 50% inhibition of stimulated [3H](+)-MK-801 binding in rat cortical membranes incubated with 10 uM glutamate and 0.1 uM glycine
[11] = Ratio of IC50 of KA low-affinity receptor site to KA high-affinity receptor site

| SMILES | Ki [1] [µM] | IC50 [3] [µM] | Ki [5] [µM] | further results |
| --- | --- | --- | --- | --- |
| CCOC(=O)c1nc2c(O)nc3cc(Cl)c(-n4cnnc4)cc3n2n1 | – | – | – | inhibition [7]: 15% |
| CC(=O)Nc1cc2c(cc1[N+](=O)[O-])nc(O)c1nc(C(=O)O)nn12 | 63 | 22.2 | 1.14 | – |
| CCOC(=O)c1nc2c(=O)[nH]c3cc(C(F)(F)F)c(N4C(=O)C=C(C=O)C4=O)cc3n2n1 | 10.9 | 42 | 12.8 | – |
| O=Cc1ccn(-c2cc3c(cc2C(F)(F)F)[nH]c(=O)c2nc(C(=O)O)nn23)c1 | 2.6 | 5.6 | 0.12 | IC50 [8]: 1 µM |
| O=Cc1ccn(-c2cc3c(cc2C(F)(F)F)nc(O)c2nc(C(=O)O)nn23)c1 | – | – | – | IC50 [9]: 8.1 µM; IC50 [2]: 1 µM; IC50 [10]: 11 µM; Ratio [11]: 0.18; IC50 ([4]; Mus musculus, read-out: IC50): 50 µM |
| CCOC(=O)c1nc2c(=O)[nH]c3cc(C(F)(F)F)c(N)cc3n2n1 | 5.5 | – | 5.5 | – |
| CCOC(=O)c1nc2c(=O)[nH]c3cc(C(F)(F)F)c([N+](=O)[O-])cc3n2n1 | 62 | – | 9 | – |
| O=C(O)c1nc2c(O)nc3cc(C(F)(F)F)c(-n4ccnc4)cc3n2n1 | 34 | 13 | 0.12 | – |
| O=C(O)c1cc(O)c2c(Cl)cc(Cl)cc2n1 | 0.09 | – | – | – |
| O=C(O)c1ccn(-c2cc3c(cc2C(F)(F)F)nc(O)c2nc(C(=O)O)nn23)c1 | – | – | – | IC50 [9]: 7.5 µM; IC50 [2]: 1.3 µM; Ratio [11]: 0.48; IC50 ([4]; Mus musculus, read-out: IC50): 60 µM |
| O=C(O)c1ccn(-c2cc3c(cc2C(F)(F)F)[nH]c(=O)c2nc(C(=O)O)nn23)c1 | 35 | 5.4 | 0.037 | IC50 [8]: 2.6 µM |
| O=C(O)c1nc2c(O)nc3cc([N+](=O)[O-])c(-n4cccc4)cc3n2n1 | – | – | – | IC50 [9]: 19 µM; IC50 [2]: 1 µM; Ratio [11]: 0.33; IC50 ([4]; Mus musculus, read-out: IC50): 50 µM |
| O=C(O)c1nc2c(O)nc3cc(C(F)(F)F)c(-n4cccc4)cc3n2n1 | 8.3 | 18.1 | 0.28 | IC50 [9]: 11 µM; IC50 [2]: 1.5 µM; IC50 [10]: 12.7 µM; IC50 ([4]; Mus musculus, read-out: IC50): 80 µM |
| O=C(O)c1nc2c(=O)[nH]c3cc(Cl)c(-n4cnnc4)cc3n2n1 [TQX-173] | – | 11.3 | – | IC50 [9]: 28 µM; IC50 [10]: 68 µM |
| O=C(O)c1ccn(-c2cc3c(cc2[N+](=O)[O-])nc(O)c2nc(C(=O)O)nn23)c1 | – | 17 | 0.019 | inhibition [7]: 7% |
| O=C(O)c1nc2c(=O)[nH]c3cc(C(F)(F)F)c(-n4cnnc4)cc3n2n1 | 3.6 | 9.6 | 0.095 | IC50 [8]: 1.8 µM |
| CCOC(=O)c1nc2c(O)nc3cc(C(F)(F)F)c(N)cc3n2n1 | – | – | – | inhibition [6]: 45% |
| CCOC(=O)c1nc2c(O)nc3cc(C(F)(F)F)c([N+](=O)[O-])cc3n2n1 | – | – | – | inhibition [6]: 24% |
| O=C(O)c1nc2c(=O)[nH]c3cc(C(F)(F)F)c([N+](=O)[O-])cc3n2n1 | 4.4 | 43 | 2.35 | – |
| O=C(O)c1nc2c(=O)[nH]c3cc([N+](=O)[O-])c(-n4cccc4)cc3n2n1 | 65 | 5.1 | 0.088 | IC50 [8]: 1.7 µM |
| O=C(O)c1nc2c(O)nc3cc(C(F)(F)F)c(-n4cnnc4)cc3n2n1 | – | – | – | IC50 [9]: 5.8 µM; IC50 [2]: 0.8 µM; Ratio [11]: 0.19; IC50 ([4]; Mus musculus, read-out: IC50): 60 µM |
| NS(=O)(=O)c1cccc2c1c([N+](=O)[O-])cc1nc(O)c(O)nc12 [NBQX] | – | – | – | IC50 [9]: 4 µM; IC50 [4]: Not Active |
| CCOC(=O)c1nc2c(O)nc3cc(C(F)(F)F)c(-n4cnnc4)cc3n2n1 | – | 92 | 0.2 | IC50 [2]: 12 µM; inhibition [7]: 42%; IC50 ([4]; Mus musculus, read-out: IC50): > 150 µM |
| CCOC(=O)c1nc2c(=O)[nH]c3cc([N+](=O)[O-])c(NC(C)=O)cc3n2n1 | 85 | 41 | 6.5 | – |
| Nc1cc2c(cc1C(F)(F)F)nc(O)c1nc(C(=O)O)nn12 | 1.5 | 24 | 1.2 | – |
| Nc1cc2c(cc1[N+](=O)[O-])[nH]c(=O)c1nc(C(=O)O)nn12 | 2.7 | 20 | 0.7 | – |

Now from value to compound, other results behind:

| Ki [1] [µM] | IC50 [3] [µM] | Ki [5] [µM] | SMILES | further results |
| --- | --- | --- | --- | --- |
| 71 | 31.2 | 0.37 | CCOC(=O)c1nc2c(O)nc3cc(C(F)(F)F)c(-n4ccc(C=O)c4)cc3n2n1 | IC50 [2]: 7.8 µM; IC50 [4]: Not Active |
| 75 | – | 2.2 | CCOC(=O)c1nc2c(O)nc3cc(C(F)(F)F)c(-n4cccc4)cc3n2n1 | inhibition [6]: 5% |
| – | 44.4 | 0.65 | CCOC(=O)c1nc2c(O)nc3cc([N+](=O)[O-])c(-n4ccc(C=O)c4)cc3n2n1 | inhibition [7]: 28% |
| 3.7 | 69 | 1.2 | CCOC(=O)c1nc2c(O)nc3cc([N+](=O)[O-])c(N)cc3n2n1 | – |
| 54 | 71 | 0.35 | CCOC(=O)c1nc2c(O)nc3cc(C(F)(F)F)c(-n4ccnc4)cc3n2n1 | – |
| – | 12.9 | 0.35 | CCOC(=O)c1nc2c(O)nc3cc(C(F)(F)F)c(-n4ccc(C(=O)O)c4)cc3n2n1 | inhibition [7]: 33% |
| – | 8.2 | 0.18 | O=Cc1ccn(-c2cc3c(cc2[N+](=O)[O-])nc(O)c2nc(C(=O)O)nn23)c1 | IC50 [9]: 12 µM; IC50 [2]: 3.1 µM; IC50 [8]: 1.2 µM; Ratio [11]: 0.15; inhibition [7]: 43%; IC50 ([4]; Mus musculus, read-out: IC50): 52 µM |
| 84 | 41 | 1.4 | CCOC(=O)c1nc2c(=O)[nH]c3cc([N+](=O)[O-])c(-n4cccc4)cc3n2n1 | – |
| – | – | 0.068 | CCOC(=O)c1nc2c(O)nc3cc([N+](=O)[O-])c(-n4ccc(C(=O)O)c4)cc3n2n1 | inhibition [7]: 16% |
